Experimental data reported in patent publication US12286425B2, “Herbicidally active bicyclic benzamides” (Bayer Aktiengesellschaft, priority 2018, dated 2025).

Assays:
Format in all cases: in vivo
[1] = system: monocotyledonous and dicotyledonous weeds and crop plants; assay: Post-emergence herbicidal action and crop plant compatibility (PO), including comparison with A-117; conditions: for Herbicidal activity ABUTH / Herbicidal activity AMARE / Herbicidal activity ECHCG / Herbicidal activity STEME / Herbicidal activity VIOTR / Herbicidal activity VERPE / Herbicidal activity ALOMY / herbicidal activity AVEFA / Herbicidal activity PHBPU / Herbicidal activity LOLMU / Herbicidal activity MATIN / Herbicidal activity POLCO / Herbicidal activity SETVI / Herbicidal activity CYPES: post-emergence (PO); for Herbicidal activity ABUTH: Abutilon theophrasti; for Herbicidal activity AMARE: Amaranthus retroflexus; for Herbicidal activity ECHCG: Echinochloa crus-galli; for Herbicidal activity STEME: Stellaria media; for Herbicidal activity VIOTR: Viola tricolor; for Herbicidal activity VERPE: Veronica persica; for Herbicidal activity ALOMY: Alopecurus myosuroides; for herbicidal activity AVEFA: Avena fatua; for Herbicidal activity PHBPU: Ipomoea purpurea; for Herbicidal activity LOLMU: Lolium multiflorum; for Herbicidal activity MATIN: Matricaria inodora; for Herbicidal activity POLCO: Polygonum convolvulus; for Herbicidal activity SETVI: Setaria viridis; for Herbicidal activity CYPES: Cyperus esculentus
Method: 2. Post-emergence herbicidal action and crop plant compatibility (post-emergence, PO) Seeds of monocotyledonous and dicotyledonous weeds and crop plants are placed in sandy loam in plastic or organic planting pots, covered with soil and cultivated in a greenhouse under controlled growth conditions. 2 to 3 weeks after sowing, the test plants are treated at the one-leaf stage. The compounds of the invention, formulated in the form of wettable powders (WP) or as emulsion concentrates (EC), are then sprayed onto the green parts of the plants as aqueous suspension or emulsion with addition of 0.5% additive at a water application rate of […] (converted). After the test plants had been kept in the greenhouse under optimum growth conditions for about 3 weeks, the activity of the preparations is rated visually in comparison to untreated controls. The tables below show the herbicidal activity of numerous compounds according to the invention against important harmful plants. For example, 100% activity=the plants have died, 0% activity=like control plants.
(§1) In a comparative experiment, by way of example, the herbicidal activity of compound No. 2-13 according to the invention was compared to that of compound No. A-117 known from WO 2013/076315 A2.

SETVI = assay: Pre-emergence herbicidal action (PE), greenhouse pot test, SETVI; conditions: for Herbicidal activity SETVI: pre-emergence (PE)
Source text: (§2) 1. Pre-emergence herbicidal action and crop plant compatibility (pre-emergence, PE) Seeds of monocotyledonous and dicotyledonous weed plants and crop plants are placed in plastic or organic planting pots and covered with soil. The compounds of the invention, formulated in the form of wettable powders (WP) or as emulsion concentrates (EC), are then applied onto the surface of the covering soil as aqueous suspension or emulsion with addition of 0.5% additive at a water application rate of […] (converted). After the treatment, the pots are placed in a greenhouse and kept under good growth conditions for the trial plants. After about 3 weeks, the effect of the preparations is scored visually in comparison with untreated controls as percentages. The tables below show the herbicidal activity of numerous compounds according to the invention against important harmful plants. For example, 100% activity=the plants have died, 0% activity=like control plants.

[2] = system: monocotyledonous and dicotyledonous weed plants and crop plants; assay: Pre-emergence herbicidal action and crop plant compatibility (PE), other species and comparison with A-117; conditions: for Herbicidal activity ABUTH: Abutilon theophrasti; for Herbicidal activity AMARE: Amaranthus retroflexus; for Herbicidal activity MATIN: Matricaria inodora; for Herbicidal activity STEME: Stellaria media; for Herbicidal activity VIOTR: Viola tricolor; for Herbicidal activity CYPES: Cyperus esculentus; for Herbicidal activity ECHCG: Echinochloa crus-galli; for Herbicidal activity POLCO: Polygonum convolvulus
Source text: as §2, §1

AVEFA = assay: Pre-emergence herbicidal action (PE), greenhouse pot test, AVEFA; conditions: for herbicidal activity AVEFA: pre-emergence (PE), application rate 320, scored visually after about 3 weeks vs untreated controls, 100% = plants have died, 0% = like control plants
Source text: as §2

[3] = application rate 20, rated visually after about 3 weeks
[4] = pre-emergence (PE), application rate 80, scored visually after about 3 weeks
[5] = application rate 80, rated visually after about 3 weeks
[6] = Setaria viridis, application rate 320, scored visually after about 3 weeks
[7] = pre-emergence (PE), application rate 320, scored visually after about 3 weeks

Structure (SMILES)	Herbicidal activity ECHCG [1, 5] [%]	Herbicidal activity VERPE [1, 5] [%]	Herbicidal activity VIOTR [1, 5] [%]	Herbicidal activity ABUTH [1, 5] [%]	Herbicidal activity ALOMY [1, 5] [%]	Herbicidal activity AMARE [1, 5] [%]	herbicidal activity AVEFA [1, 5] [%]	Herbicidal activity PHBPU [1, 5] [%]	Herbicidal activity POLCO [1, 5] [%]	Herbicidal activity SETVI [1, 5] [%]	Herbicidal activity STEME [1, 5] [%]	Herbicidal activity SETVI (SETVI; [6]) [%]	Herbicidal activity ABUTH [2, 7] [%]	Herbicidal activity AMARE [2, 7] [%]	Herbicidal activity CYPES [2, 7] [%]	Herbicidal activity ECHCG [2, 7] [%]	Herbicidal activity MATIN [2, 7] [%]	Herbicidal activity STEME [2, 7] [%]	Herbicidal activity VIOTR [2, 7] [%]	herbicidal activity AVEFA (AVEFA) [%]	also measured
Cn1nnnc1NC(=O)c1ccc(C(F)(F)F)c2c1SCCS2 [Example 2-5, 5-(trifluoromethyl)-2,3-dihydro-1,4-benzodithiine-N-(1-methyltetrazol-5-yl)-8-carboxamide]	–	–	–	–	–	–	–	–	–	–	–	–	–	–	–	–	–	–	–	–	Herbicidal activity ABUTH [1, 3]: 90%; Herbicidal activity AMARE [1, 3]: 100%; Herbicidal activity ECHCG [1, 3]: 90%; Herbicidal activity STEME [1, 3]: 80%; Herbicidal activity VIOTR [1, 3]: 80%; Herbicidal activity SETVI (SETVI; application rate 80, scored visually after about 3 weeks vs untreated controls, 100% = plants have died, 0% = like control plants): 90%; Herbicidal activity ABUTH [2, 4]: 100%; Herbicidal activity AMARE [2, 4]: 100%; Herbicidal activity MATIN [2, 4]: 100%; Herbicidal activity STEME [2, 4]: 90%; Herbicidal activity VERPE ([2]; pre-emergence (PE), Veronica persica, application rate 80, scored visually after about 3 weeks): 90%; Herbicidal activity VIOTR [2, 4]: 100%
Cn1nnnc1NC(=O)c1ccc(C(F)(F)F)c2c1S(=O)(=O)CCS2(=O)=O [Example 2-11]	80	80	90	–	–	–	–	–	–	–	–	–	–	–	–	–	–	–	–	–	Herbicidal activity ABUTH [2, 4]: 100%; Herbicidal activity AMARE [2, 4]: 80%; Herbicidal activity MATIN [2, 4]: 80%
Cn1nnnc1NC(=O)c1ccc(C(F)(F)F)c2c1OCCS2 [Example 2-13, 5-(trifluoromethyl)-2,3-dihydro-1,4-benzoxathiine-N-(1-methyltetrazol-5-yl)-8-carboxamide]	90	100	100	100	90	90	90	90	80	90	90	100	100	100	90	100	100	90	100	80	Herbicidal action against ABUTH ([1]; post-emergence (PO) comparative experiment with A-117, Abutilon theophrasti, dosage 80 g/ha): 100%; Herbicidal action against ALOMY ([1]; post-emergence (PO) comparative experiment with A-117, Alopecurus myosuroides, dosage 80 g/ha): 90%; Herbicidal action against AVEFA ([1]; post-emergence (PO) comparative experiment with A-117, Avena fatua, dosage 80 g/ha): 90%; Herbicidal action against LOLMU ([1]; post-emergence (PO) comparative experiment with A-117, Lolium multiflorum, dosage 80 g/ha): 80%; Herbicidal action against POLCO ([1]; post-emergence (PO) comparative experiment with A-117, Polygonum convolvulus, dosage 80 g/ha): 80%; Herbicidal activity LOLMU [1, 5]: 80%; Herbicidal activity MATIN [1, 5]: 90%; herbicidal activity compared to compound No. A-117 ([1]; post-emergence comparative experiment, numerous harmful plants): superiority of the compound according to the invention was demonstrated clearly; Herbicidal action against SETVI (SETVI; pre-emergence (PE) comparative experiment with A-117, Setaria viridis, dosage 320 g/ha): 100%; Herbicidal action against ABUTH ([2]; pre-emergence (PE) comparative experiment with A-117, Abutilon theophrasti, dosage 320 g/ha): 100%; Herbicidal action against ALOMY ([2]; pre-emergence (PE) comparative experiment with A-117, Alopecurus myosuroides, dosage 320 g/ha): 90%; Herbicidal action against MATIN ([2]; pre-emergence (PE) comparative experiment with A-117, Matricaria inodora, dosage 320 g/ha): 100%; Herbicidal activity POLCO [2, 7]: 80%; herbicidal activity compared to compound No. A-117 ([2]; pre-emergence comparative experiment, numerous harmful plants): superiority of the compound according to the invention was demonstrated clearly; Herbicidal action against AVEFA (AVEFA; pre-emergence (PE) comparative experiment with A-117, Avena fatua, dosage 320 g/ha): 80%
Cn1nnnc1NC(=O)c1ccc(C(F)(F)F)c2c1OCC[S+]2[O-] (stereo not drawn) [Example 2-17, 5-(trifluoromethyl)-2,3-dihydro-1,4-benzoxathiine-N-(1-methyltetrazol-5-yl)-8-carboxamide 4-oxide]	90	100	100	100	90	90	100	100	90	90	100	100	100	100	100	100	90	100	100	80	Herbicidal activity CYPES [1, 5]: 100%; Herbicidal activity LOLMU [1, 5]: 90%; Herbicidal activity MATIN [1, 5]: 90%
Cn1nnnc1NC(=O)c1ccc(C(F)(F)F)c2c1OCCS2(=O)=O [Example 2-20, 5-(trifluoromethyl)-2,3-dihydro-1,4-benzoxathiine-N-(1-methyltetrazol-5-yl)-8-carboxamide 4,4-dioxide]	90	100	100	100	80	100	80	90	100	90	90	100	100	100	100	100	100	90	100	100	Herbicidal activity CYPES [1, 5]: 80%; Herbicidal activity LOLMU [1, 5]: 80%; Herbicidal activity MATIN [1, 5]: 100%; Herbicidal activity POLCO [2, 7]: 100%
Cn1nnnc1NC(=O)c1ccc(C(F)(F)F)c2c1OCC(Cl)S2 (stereo not drawn) [Example 2-41]	–	–	–	–	–	90	–	–	–	–	–	–	–	–	–	–	–	–	–	–	–
CCn1nnnc1NC(=O)c1ccc(C(F)(F)F)c2c1OCCS2 [Example 3-13, 5-(trifluoromethyl)-2,3-dihydro-1,4-benzoxathiine-N-(1-ethyltetrazol-5-yl)-8-carboxamide]	100	–	100	100	–	90	90	90	100	90	100	100	100	100	100	100	90	100	100	80	Herbicidal activity POLCO [2, 7]: 90%
